In US7041303B2, “Use of moxonidine for postmyocardial infarction treatment” (Solvay Pharmaceuticals GmbH, priority 1999, dated 2006):

Key:
[1] = system: Wistar rats with chronic myocardial infarction (MI); test: Plasma noradrenaline (HPLC) and ANF (RIA) levels in MI rats; format: in vivo, rat; settings: for Plasma NA (noradrenaline) level / Plasma ANF (atrial natriuretic factor): three weeks, mean ± SEM
Description: The following studies were performed on male Wistar rats (270 to 320 g, Harlan Zeist, Netherlands). The rats were kept in rooms with a 12 h light/dark cycle and had free access to standard rat diet and water. The animals underwent coronary artery ligation (MI rats) or sham operation without ligation (sham rats). After 24 hours the MI rats were randomized and implanted with osmotic minipumps (Alzet, Model 2001) in order to administer moxonidine in a dose of 3 or 6 mg/kg-day s.c. (subcutaneously) or only operated on without pump implant. The moxonidine treatment was continued up to the end of the experiment three weeks after the surgical procedure. The left anterior descending coronary artery was ligated under pentobarbital anesthesia (60 mg/kg, i.p.). Brief description: after intubation of the trachea, an incision was made in the skin over the 4th intercostal space. The overlaying muscles were separated and kept aside. […] The pericardium was opened. The heart was left in situ and a 6-0 silk suture was placed below the left coronary artery in the vicinity of the origin of the pulmonary artery. The suture was tightened. Sham rats were subjected to the same procedure but without actual ligation. The ribs were pulled together with 3-0 silk suture. The muscles were then returned to their original position and the skin was sutured. 19 days after the surgical procedure for coronary artery ligation the rats were again anesthetized with pentobarbital and a catheter (PE-10, heat-sealed with PE-50) was introduced through the femoral artery and placed in the abdominal aorta. The catheter was advanced subcutaneously as far as the animals' neck, where it was allowed to exit and was fixed and closed at the exit site. The rats were allowed a 2-day recovery period. On the day of sampling the catheter was lengthened with a heparin-treated, saline-filled tube and two 1-ml blood samples were collected after at least 60 minutes. Blood was collected in pre-cooled sample pots (syringes) prepared with 10 μl EDTA (0.1M). After centrifugation the plasma was collected in pre-cooled tubes containing either 1.2 mg glutathione or 10 μl aprotinin (100 KIU; KIU=kilo international units) in order to determine either catecholamines or atrial natriuretic factor (ANF). The tubes were stored at −80° C. The plasma concentrations of noradrenaline, adrenaline and dopamine were determined by HPLC, whereas the concentrations of ANF were analyzed using an RIA test. The data obtained were expressed as group means ± SEM (standard error of the mean) unless otherwise stated. Only data of infarcted hearts with an infarct area covering the major portion of the free heart wall of the left ventricle were included in the evaluation since smaller infarct areas are usually fully compensated hemodynamically. The data were analyzed by one-way analysis of variance (ANOVA) followed by post-hoc Bonferroni analysis. Differences in the structural parameters in moxonidine treated and untreated infarcted hearts were determined by Student t-test independently for the two groups.

[2] = system: Wistar rats with chronic myocardial infarction (MI); test: Measurement of cardiac interstitial collagen (Sirius red) in MI rats; format: in vivo, rat; settings: interventricular septum, infarct rats, three weeks, mean ± SEM
Description: The following studies were performed on male Wistar rats (270 to 320 g, Harlan Zeist, Netherlands). The rats were kept in rooms with a 12 h light/dark cycle and had free access to standard rat diet and water. The animals underwent coronary artery ligation (MI rats) or sham operation without ligation (sham rats). After 24 hours the MI rats were randomized and implanted with osmotic minipumps (Alzet, Model 2001) in order to administer moxonidine in a dose of 3 or 6 mg/kg-day s.c. (subcutaneously) or only operated on without pump implant. The moxonidine treatment was continued up to the end of the experiment three weeks after the surgical procedure. The left anterior descending coronary artery was ligated under pentobarbital anesthesia (60 mg/kg, i.p.). Brief description: after intubation of the trachea, an incision was made in the skin over the 4th intercostal space. […] The quantity of interstitial collagen was determined on 6 to 7 hearts randomly selected from each experimental group. […] The data obtained were expressed as group means ± SEM (standard error of the mean) unless otherwise stated. […] The data were analyzed by one-way analysis of variance (ANOVA) followed by post-hoc Bonferroni analysis. Differences in the structural parameters in moxonidine treated and untreated infarcted hearts were determined by Student t-test independently for the two groups.

[3] = system: Wistar rats with chronic myocardial infarction (MI); test: Wistar rats with chronic myocardial infarction (coronary artery ligation): body weight, heart weight, heart rate, MAP, mortality; format: in vivo; settings: for Heart rate: conscious infarct rats
Description: The following studies were performed on male Wistar rats (270 to 320 g, Harlan Zeist, Netherlands). The rats were kept in rooms with a 12 h light/dark cycle and had free access to standard rat diet and water. The animals underwent coronary artery ligation (MI rats) or sham operation without ligation (sham rats). After 24 hours the MI rats were randomized and implanted with osmotic minipumps (Alzet, Model 2001) in order to administer moxonidine in a dose of 3 or 6 mg/kg-day s.c. (subcutaneously) or only operated on without pump implant. The moxonidine treatment was continued up to the end of the experiment three weeks after the surgical procedure.
The left anterior descending coronary artery was ligated under pentobarbital anesthesia (60 mg/kg, i.p.). Brief description: after intubation of the trachea, an incision was made in the skin over the 4th intercostal space. The overlaying muscles were separated and kept aside. The animals were then placed on positive pressure ventilation (rate 65 to 70/min, stroke volume 3 ml) and the thoracic cavity was opened by cutting the intercostal muscles. The pericardium was opened. The heart was left in situ and a 6-0 silk suture was placed below the left coronary artery in the vicinity of the origin of the pulmonary artery. The suture was tightened. Sham rats were subjected to the same procedure but without actual ligation. The ribs were pulled together with 3-0 silk suture. The muscles were then returned to their original position and the skin was sutured.
The data obtained were expressed as group means ± SEM (standard error of the mean) unless otherwise stated. Only data of infarcted hearts with an infarct area covering the major portion of the free heart wall of the left ventricle were included in the evaluation since smaller infarct areas are usually fully compensated hemodynamically. The data were analyzed by one-way analysis of variance (ANOVA) followed by post-hoc Bonferroni analysis. Differences in the structural parameters in moxonidine treated and untreated infarcted hearts were determined by Student t-test independently for the two groups.
Four groups of rats were studied: 2 moxonidine-treated infarct rats (dosage 3 and 6 mg/kg·day), untreated infarct rats and sham-operated control rats (SHAM rats). Coronary artery ligation produced a main infarction in the free wall of the left ventricle. Total mortality of the experimental animals was 29% and was the same in both infarct groups. Data of five rats of the 6 mg/kg·day group had to be excluded since their infarct area was too small. The results of the tests are summarized in Table 1 for experiments with a dosage of 6 mg/kg·day and for a dosage of 3 mg/kg·day, and are explained in the following. The results shown in Table 1 comprise the data of groups of 7 to 14 rats with the exception of the collagen measurements, for which the data refer to groups of 6 to 7 rats.

[4] = infarct rats, moxonidine 6 mg/kg daily s.c.
[5] = infarct rats, moxonidine 3 mg/kg daily s.c., three weeks, mean ± SEM
[6] = infarct rats, moxonidine 6 mg/kg daily s.c., three weeks, mean ± SEM

COc1nc(C)nc(Cl)c1NC1=NCCN1 [moxonidine, 4-chloro-5-[(4,5-dihydro-1H-imidazol-2-yl)-amino]-6-methoxy-2-methyl-pyrimidine]
Plasma noradrenaline levels (in words) ([1]; infarct rats, 3 mg/kg·day group): clearly reduced | Plasma noradrenaline levels (in words) ([1]; infarct rats, 6 mg/kg·day group, versus sham rats): almost half the values of the sham rats | Plasma NA (noradrenaline) level ([1]; infarct rats, moxonidine 3 mg/kg daily s.c.): 345 ± 108 pg/mL | Plasma ANF (atrial natriuretic factor) ([1]; infarct rats, moxonidine 3 mg/kg daily s.c., n-3): (54 ± 2, n-3) pg/ml | Plasma ANF (atrial natriuretic factor) [1, 4]: 61 ± 8 pg/mL | Plasma NA (noradrenaline) level [1, 4]: 96 ± 20 pg/mL | Plasma ANF levels (in words) ([1]; moxonidine-treated infarct rats versus untreated infarct rats): unchanged compared to those of untreated infarct rats | Plasma noradrenaline levels (in words) ([1]; moxonidine-treated infarct rats, dose not stated, versus sham rats): about half the value found for the sham rats | Interstitial Collagen ([2]; moxonidine 3 mg/kg daily s.c.): 2.4 ± 0.2 % | Interstitial Collagen ([2]; moxonidine 6 mg/kg daily s.c.): 1.4 ± 0.1% | Heart rate ([3]; moxonidine 3 mg/kg daily s.c., three weeks, mean ± SEM): 334 ± 12 beats/min | Heart rate ([3]; moxonidine 6 mg/kg daily s.c., three weeks, mean ± SEM): 321 ± 6 beats/min | Heart weight [3, 5]: 1408 ± 104 mg | Heart/Body weight ratio [3, 5]: 4.7 ± 0.4 | MAP (mean arterial pressure) [3, 5]: 87 ± 3 mmHg | Heart weight [3, 6]: 1076 ± 24 mg | MAP (mean arterial pressure) [3, 6]: 100 ± 5 mmHg | Heart rate measured in conscious animals (in words) ([3]; moxonidine-treated infarct rats versus sham rats): slowing of cardiac activity (bradycardia) compared to the sham rats | Body weight (in words) ([3]; moxonidine-treated infarct rats versus untreated infarct rats and sham rats): slightly lower body weight than the untreated infarct rats | Cardiac weight (in words) ([3]; moxonidine-treated infarct rats versus untreated infarct rats, dosage depending 3 to 6 mg/kg·day): significantly lower than the cardiac weight of untreated infarct rats | Total mortality of the experimental animals ([3]; the same in both infarct groups (treated and untreated)): 29%
